Patent publication US20110112151A1, “COMPOUND CAPABLE OF INHIBITING 11-BETA HYDROXYSTERIOD DEHYDROGENASE” (priority 2008, published 2011)

How the values were obtained:
11β-HSD1 = target: T1, 11β-HSD1 (Homo sapiens, UniProt P28845); assay: 11β-HSD1 HEK assay (cell based assay, SPA); settings: HEK293; at 1 μM; whole HEK 293 cells stably transfected with the HSD11B1 gene, 3H-cortisone substrate; read-out: Activity (inhibition of 11β-HSD1)
T1 construct: expressed in transfected cells; host or cells: HEK 293 (stably transfected, HEK 293/HSD11B1)
Procedure: 11β-HSD1 HEK Assay Protocol (Cell Based Assay)
11β-HSD1 activity is measured in whole HEK 293 cells stably transfected with the HSD11B1 gene. Cells are incubated in 96-well microplates in the presence of tritiated substrate. Enzyme activity is determined by measuring the amount of tritated product by scintillation proximity assay (SPA). Assay plates contain internal high and low controls to allow calculation of percentage inhibition.
1. […] 2. When the cells are 80% confluent the medium is removed from each well. 100 μl fresh, serum-free, medium containing ^3H-cortisone and test compound in 1% DMSO is added to each well*. Control wells are also dispensed. […] 3. The plate is incubated at 37° C. for the required time period. 4. 50 μl of media is removed from each well and transferred to a microplate containing 100 μl of a pre-incubated mixture of anti-cortisol antibody and SPA bead. The mixture is incubated with gentle shaking until equilibrium is reached, before transferring to a scintillation counter to establish the enzyme activity in each sample.
10 μl of compound is dispensed into each well of a 96-well microplate in 10% DMSO at 100 μM concentration. 90 μl media containing ^3H-cortisone is added to each well. The compound/media/substrate mixture is then transferred to the assay plate containing the cells. […]

T1 sequence (P28845 whole entry): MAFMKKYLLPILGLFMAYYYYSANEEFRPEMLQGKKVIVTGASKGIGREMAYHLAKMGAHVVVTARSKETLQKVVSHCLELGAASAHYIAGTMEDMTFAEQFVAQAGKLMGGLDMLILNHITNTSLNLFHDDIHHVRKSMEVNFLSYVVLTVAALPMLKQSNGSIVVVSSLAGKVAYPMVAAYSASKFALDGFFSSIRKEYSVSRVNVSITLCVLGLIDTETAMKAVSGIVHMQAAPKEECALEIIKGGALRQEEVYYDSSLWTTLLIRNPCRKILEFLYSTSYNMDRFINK

Row | Compound | inhibition at 1 µM (11β-HSD1) [%] | melting point [°C]
1 | O=C(C[S+]([O-])Cc1ccncc1)C12CC3CC(CC(C3)C1)C2 (stereo not drawn) [Example 84, 1-Adamantan-1-yl-2-(pyridin-4-ylmethanesulfinyl)-ethanone] | > 60 | 119 to 123
2 | Nc1nnc(SCC(=O)C23CC4CC(CC(C4)C2)C3)s1 [Example 88, 1-(Adamantan-1-yl)-2-[(5-amino-1,3,4-thiadiazol-2-yl)sulfanyl]ethanone] | > 60 | 198 to 199
3 | O=C(CSc1n[nH]c(-c2ccco2)n1)C12CC3CC(CC(C3)C1)C2 [Example 90, 1-(Adamantan-1-yl)-2-{[5-(furan-2-yl)-1H-1,2,4-triazol-3-yl]sulfanyl}ethanone] | < 20 | 177 to 178
4 | CC(=O)Nc1nnc([S+]([O-])CC(=O)C23CC4CC(CC(C4)C2)C3)s1 (stereo not drawn) [Example 94, N-(5-{[2-(Adamantan-1-yl)-2-oxoethane]sulfinyl}-1,3,4-thiadiazol-2-yl)acetamide] | > 60 | 216 to 218
5 | O=C(Nc1nnc(SCC(=O)C23CC4CC(CC(C4)C2)C3)s1)C1CC1 [Example 95, N-(5-{[2-(Adamantan-1-yl)-2-oxoethyl]sulfanyl}-1,3,4-thiadiazol-2-yl)cyclopropanecarboxamide] | 20 to 60 | 218 to 219
6 | O=C(Nc1nnc([S+]([O-])CC(=O)C23CC4CC(CC(C4)C2)C3)s1)C1CC1 (stereo not drawn) [Example 96, N-(5-{[2-(Adamantan-1-yl)-2-oxoethane]sulfinyl}-1,3,4-thiadiazol-2-yl)cyclopropanecarboxamide] | > 60 | 172.5 to 174
7 | O=C(Nc1nnc(S(=O)(=O)CC(=O)C23CC4CC(CC(C4)C2)C3)s1)C1CC1 [Example 97, N-(5-{[2-(Adamantan-1-yl)-2-oxoethane]sulfonyl}-1,3,4-thiadiazol-2-yl)cyclopropanecarboxamide] | > 60 | 209 to 211
8 | CN(C)c1nnc(SCC(=O)C23CC4CC(CC(C4)C2)C3)s1 [Example 104, 1-(Adamantan-1-yl)-2-{[5-(dimethylamino)-1,3,4-thiadiazol-2-yl]sulfanyl}ethan-1-one] | > 60 | 150 to 151

More lines, now with the values ahead:

Row | inhibition at 1 µM (11β-HSD1) [%] | melting point [°C] | Compound
9 | > 60 | 113 to 114 | Cc1nnc(SCC(=O)C23CC4CC(CC(C4)C2)C3)n1C [Example 87, 1-(Adamantan-1-yl)-2-[(4,5-dimethyl-1,2,4-triazol-3-yl)sulfanyl]ethanone]
10 | < 20 | 187 to 188 | O=C(CSc1n[nH]c(-c2ccccc2)n1)C12CC3CC(CC(C3)C1)C2 [Example 89, 1-(Adamantan-1-yl)-2-[(5-phenyl-1H-1,2,4-triazol-3-yl)sulfanyl]ethanone]
11 | > 60 | 208 to 210 | CC(=O)Nc1nnc(SCC(=O)C23CC4CC(CC(C4)C2)C3)s1 [Example 91, N-(5-{[2-(Adamantan-1-yl)-2-oxoethyl]sulfanyl}-1,3,4-thiadiazol-2-yl)acetamide]
12 | > 60 | 112 to 113 | Cn1nnnc1SCC(=O)C12CC3CC(CC(C3)C1)C2 [Example 92, 1-(Adamantan-1-yl)-2-[(1-methyl-1,2,3,4-tetrazol-5-yl)sulfanyl]ethanone]
13 | > 60 | 96 to 97.5 | Cn1c(SCC(=O)C23CC4CC(CC(C4)C2)C3)nnc1C1CC1 [Example 101, 1-(Adamantan-1-yl)-2-[(5-cyclopropyl-4-methyl-4H-1,2,4-triazol-3-yl)sulfanyl]ethan-1-one]
14 | > 60 | 156 to 157 | Cn1c(SCC(=O)C23CC4CC(CC(C4)C2)C3)nnc1-c1cccs1 [Example 102, 1-(Adamantan-1-yl)-2-{[4-methyl-5-(thiophen-2-yl)-4H-1,2,4-triazol-3-yl]sulfanyl}ethan-1-one]
15 | > 60 | 119 to 120.5 | Cc1nnc(SCC(=O)C23CC4CC(CC(C4)C2)C3)n1C(C)C [Example 103, 1-(Adamantan-1-yl)-2-{[5-methyl-4-(propan-2-yl)-4H-1,2,4-triazol-3-yl]sulfanyl}ethan-1-one]
16 | 20 to 60 | 158 to 159 | Cc1nnc(SCC(=O)C23CC4CC(CC(C4)C2)C3)n1Cc1ccc(Cl)cc1 [Example 105, 1-(Adamantan-1-yl)-2-({4-[(4-chlorophenyl)methyl]-5-methyl-4H-1,2,4-triazol-3-yl}sulfanyl)ethan-1-one]
17 | > 60 | 133.5 to 135 | CSc1nnc(SCC(=O)C23CC4CC(CC(C4)C2)C3)s1 [Example 106, 1-(Adamantan-1-yl)-2-{[5-(methylsulfanyl)-1,3,4-thiadiazol-2-yl]sulfanyl}ethan-1-one]
18 | > 60 | 109 to 111 | COCc1nnc(SCC(=O)C23CC4CC(CC(C4)C2)C3)n1C [Example 107, 1-(Adamantan-1-yl)-2-{[5-(methoxymethyl)-4-methyl-4H-1,2,4-triazol-3-yl]sulfanyl}ethan-1-one]
